Measured values from article PMC8325370 (Proceedings of the National Academy of Sciences of the …, 2021).

Molecular target: T1, homomeric A2 channels (wt CNGA2) (Rattus norvegicus, UniProt Q00195)
T1 sequence (Q00195 1-664): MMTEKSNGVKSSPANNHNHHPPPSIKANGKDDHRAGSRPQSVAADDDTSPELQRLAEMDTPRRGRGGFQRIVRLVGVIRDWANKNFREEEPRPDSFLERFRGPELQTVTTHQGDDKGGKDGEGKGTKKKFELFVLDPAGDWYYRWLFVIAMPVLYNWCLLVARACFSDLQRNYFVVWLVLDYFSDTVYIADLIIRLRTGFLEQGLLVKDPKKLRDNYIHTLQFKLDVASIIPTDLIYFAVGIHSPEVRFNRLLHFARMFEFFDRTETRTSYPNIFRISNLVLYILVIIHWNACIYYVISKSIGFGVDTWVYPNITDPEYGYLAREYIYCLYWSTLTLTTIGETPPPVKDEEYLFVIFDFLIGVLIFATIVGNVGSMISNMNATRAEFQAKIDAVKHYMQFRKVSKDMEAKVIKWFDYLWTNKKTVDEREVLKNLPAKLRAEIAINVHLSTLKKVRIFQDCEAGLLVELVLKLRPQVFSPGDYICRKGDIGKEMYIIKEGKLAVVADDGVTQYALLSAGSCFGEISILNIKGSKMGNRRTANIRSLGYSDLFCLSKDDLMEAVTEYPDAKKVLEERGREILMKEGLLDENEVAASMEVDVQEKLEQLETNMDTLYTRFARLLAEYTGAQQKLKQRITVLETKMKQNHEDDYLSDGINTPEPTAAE
Assay: inside-out patch clamp, macroscopic current
Format: biochemical
Conditions: agonist; +100 mV, 150 mM KCl, pH 7.4; Xenopus oocytes

Question: `Nc1nc2c(ncn2[C@@H]2O[C@@H]3COP(=O)(O)O[C@H]3[C@H]2O)c(=O)[nH]1` [cGMP] was tested. Which EC50 did it give?
Answer: concentration–activation relationships to homomeric A2 channels
